Test results published in ChEMBL document CHEMBL1201862, “PubChem BioAssay data set” (2004).
Active and inactive are the calls of the source. For most assays here, no stated cut-off is given here; in the data, active = IC50 of 10 µM or less and inactive = more.

Tests used:
[1] = target: Induced myeloid leukemia cell differentiation protein Mcl-1 (Homo sapiens, UniProt Q07820); type: functional
[2] = target: 1-acylglycerol-3-phosphate O-acyltransferase ABHD5/Perilipin-5 (Homo sapiens, UniProt Q00G26+Q8WTS1); experiment: Luminescence-based biochemical high throughput dose response assay for inhibitors of the interaction of the lipase co-activator protein, abhydrolase domain containing 5 (ABHD5) with perilipin-5 (MLDP; PLIN5) (2K validation set). [Related pubchem assays (depositor defined):AID493035, AID493241]
Chain of 1-acylglycerol-3-phosphate O-acyltransferase ABHD5/Perilipin-5 (Q00G26 whole entry, the tested form may be a part): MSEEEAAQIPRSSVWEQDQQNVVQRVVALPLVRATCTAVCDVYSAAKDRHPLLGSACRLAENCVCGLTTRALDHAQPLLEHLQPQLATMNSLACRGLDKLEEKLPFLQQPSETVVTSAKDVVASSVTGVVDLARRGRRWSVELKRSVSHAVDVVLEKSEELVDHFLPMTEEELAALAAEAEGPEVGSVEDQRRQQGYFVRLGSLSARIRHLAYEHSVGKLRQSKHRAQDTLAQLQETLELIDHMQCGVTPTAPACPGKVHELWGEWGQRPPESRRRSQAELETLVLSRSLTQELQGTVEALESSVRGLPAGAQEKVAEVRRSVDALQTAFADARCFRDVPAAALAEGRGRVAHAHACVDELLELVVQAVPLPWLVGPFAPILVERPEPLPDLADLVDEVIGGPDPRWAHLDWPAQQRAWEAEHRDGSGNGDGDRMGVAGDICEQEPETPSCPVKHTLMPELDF
Chain of 1-acylglycerol-3-phosphate O-acyltransferase ABHD5/Perilipin-5 (Q8WTS1 whole entry, the tested form may be a part): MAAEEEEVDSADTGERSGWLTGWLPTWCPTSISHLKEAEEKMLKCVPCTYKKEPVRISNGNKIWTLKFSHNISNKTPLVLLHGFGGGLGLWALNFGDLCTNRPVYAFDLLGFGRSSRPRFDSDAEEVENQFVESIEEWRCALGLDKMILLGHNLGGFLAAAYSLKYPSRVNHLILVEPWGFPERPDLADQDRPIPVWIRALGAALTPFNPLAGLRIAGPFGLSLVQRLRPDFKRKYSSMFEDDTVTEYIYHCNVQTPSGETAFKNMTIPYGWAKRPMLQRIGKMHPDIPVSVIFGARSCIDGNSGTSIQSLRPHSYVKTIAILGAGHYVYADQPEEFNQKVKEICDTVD

Perilipin-1/ABHD5 = Perilipin-1/ABHD5 (Homo sapiens, UniProt O60240+Q8WTS1); experiment: Luminescence-based biochemical high throughput dose response assay for inhibitors of the interaction of the lipase co-activator protein, abhydrolase domain containing 5 (ABHD5) with perilipin-1 (PLIN1) (2K validation set). [Related pubchem assays (depositor defined):AID493027, AID493057]
Chain of Perilipin-1/ABHD5 (Q8WTS1 whole entry, the tested form may be a part): as above
Chain of Perilipin-1/ABHD5 (O60240 whole entry, the tested form may be a part): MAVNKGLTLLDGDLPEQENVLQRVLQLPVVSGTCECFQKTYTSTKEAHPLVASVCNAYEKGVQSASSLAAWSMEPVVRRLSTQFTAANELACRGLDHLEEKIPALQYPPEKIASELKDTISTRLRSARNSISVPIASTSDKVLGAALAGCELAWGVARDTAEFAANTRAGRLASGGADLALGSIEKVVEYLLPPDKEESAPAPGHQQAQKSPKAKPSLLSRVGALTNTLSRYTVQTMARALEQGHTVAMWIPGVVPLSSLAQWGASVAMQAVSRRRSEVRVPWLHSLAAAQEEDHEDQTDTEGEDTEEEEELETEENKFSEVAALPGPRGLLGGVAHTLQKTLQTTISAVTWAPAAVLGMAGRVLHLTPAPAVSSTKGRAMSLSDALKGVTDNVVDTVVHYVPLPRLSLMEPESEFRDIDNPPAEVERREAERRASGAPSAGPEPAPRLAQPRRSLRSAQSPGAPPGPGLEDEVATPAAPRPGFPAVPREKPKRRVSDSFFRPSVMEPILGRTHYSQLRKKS

Measured: IC50

Chain of Induced myeloid leukemia cell differentiation protein Mcl-1 (Q07820 whole entry, the tested form may be a part): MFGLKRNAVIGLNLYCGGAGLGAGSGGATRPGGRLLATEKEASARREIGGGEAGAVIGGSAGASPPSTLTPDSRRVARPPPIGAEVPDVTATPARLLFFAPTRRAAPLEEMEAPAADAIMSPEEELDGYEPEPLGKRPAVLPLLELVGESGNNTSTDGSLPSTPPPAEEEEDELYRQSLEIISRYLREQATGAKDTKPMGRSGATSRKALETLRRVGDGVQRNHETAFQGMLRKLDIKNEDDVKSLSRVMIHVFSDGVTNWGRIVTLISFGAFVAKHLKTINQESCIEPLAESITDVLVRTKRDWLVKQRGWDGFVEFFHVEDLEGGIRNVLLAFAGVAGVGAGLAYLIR

COC(=O)c1cc(-c2ccc(C)o2)nc2ccccc12
active: [1] 18 µM | [2] 8.7 µM | Perilipin-1/ABHD5 8.68 µM
